Test results reported in US20170210778A1, “NOVEL COMPOUNDS” (The Provost, Fellows, Foundation Scholars, and the other …, priority 2014, published 2017).

Assays:
Type in all cases: cell-based
human NOD1 = biological target: T1, human NOD1 (Homo sapiens, UniProt Q9Y239); assay: NOD1 functional agonist assay, 293hNOD1-SEAP reporter cells; details: 293hNOD1 cells, OD above 3*O.D of negative control
T1 construct: expressed in transfected cells; host or cells: HEK293
T1 sequence (Q9Y239 1-953): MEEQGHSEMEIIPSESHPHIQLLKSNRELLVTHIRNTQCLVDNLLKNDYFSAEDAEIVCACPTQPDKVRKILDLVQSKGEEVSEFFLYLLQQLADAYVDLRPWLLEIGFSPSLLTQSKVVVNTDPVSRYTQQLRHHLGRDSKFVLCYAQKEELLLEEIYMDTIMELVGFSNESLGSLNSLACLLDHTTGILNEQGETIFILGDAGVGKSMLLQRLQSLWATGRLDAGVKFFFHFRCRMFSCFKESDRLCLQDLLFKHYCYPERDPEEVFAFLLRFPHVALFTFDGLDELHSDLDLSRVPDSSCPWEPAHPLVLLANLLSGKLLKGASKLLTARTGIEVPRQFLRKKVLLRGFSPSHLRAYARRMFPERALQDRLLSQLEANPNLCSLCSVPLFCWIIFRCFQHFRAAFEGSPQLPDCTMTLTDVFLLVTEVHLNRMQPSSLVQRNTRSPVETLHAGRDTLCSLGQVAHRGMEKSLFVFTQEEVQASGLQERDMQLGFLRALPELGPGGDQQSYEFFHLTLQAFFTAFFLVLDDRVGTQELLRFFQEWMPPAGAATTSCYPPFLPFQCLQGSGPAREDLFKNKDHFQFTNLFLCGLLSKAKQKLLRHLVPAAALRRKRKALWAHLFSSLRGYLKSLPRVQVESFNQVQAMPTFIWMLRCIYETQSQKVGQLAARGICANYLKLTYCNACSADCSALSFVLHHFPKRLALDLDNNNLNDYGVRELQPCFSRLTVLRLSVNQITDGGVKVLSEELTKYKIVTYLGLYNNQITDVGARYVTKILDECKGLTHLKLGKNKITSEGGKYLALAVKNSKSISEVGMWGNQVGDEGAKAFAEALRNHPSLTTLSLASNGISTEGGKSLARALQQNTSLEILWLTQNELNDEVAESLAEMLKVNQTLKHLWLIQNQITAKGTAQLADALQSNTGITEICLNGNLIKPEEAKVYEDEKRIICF
Description: (§1) HEK293 cells were stably transfected with plasmid for the overexpression of the NOD1 genes and a reporter plasmid expressing a secreted embryonic alkaline phosphatase (SEAP) gene under the control of a promoter inducible by the transcription factors NF-κB and AP-1. These cells are referred herein as 293hNOD1-SEAP (for cells overexpressing the human NOD1 gene) and 293mNOD1-SEAP (for cells overexpressing the murine NOD1 gene). Upon NOD1 stimulation, these cells induce the activation of NF-κB and AP-1 and subsequently the secretion of SEAP. The reporter protein is easily detectable and measurable when using QUANTI-Blue™ (InvivoGen, San Diego, Calif.), a medium that turns purple/blue in the presence of SEAP.
(§2) The biological activity of the compounds of the invention tested using 293hNOD1 and 293mNOD1 cells. SEAP expression was measured using the commercially available SEAP detection kit (HEK-Blue™ Detection, InvivoGen). The SEAP activity in cells was quantified using the microplate reader (FLUOStar OPTIMA, BMG laboratories), the absorbance values were read using filter with excitation at 620 nm and emission at 655 nm. The results provided in Table 2 were expressed as the concentration were a significant mean optical density (OD) can be observed (above 3*O.D of negative control). As a positive control, the NOD1 pathway was stimulated with commercially available iE-DAP (InvivoGen) and C12-iE-DAP (an acylated derivative of DAP; InvivoGen). As a negative control endotoxin-free water was used. Additionally, 293 cells expressing the SEAP gene but not the NOD1 gene were used as a control.

hNOD2 = biological target: T2, hNOD2 (Homo sapiens, UniProt Q9HC29); assay: NOD2 functional agonist assay, 293hNOD2-SEAP reporter cells; details: 293hNOD2 cells, OD above 3*O.D of negative control
T2 construct: expressed in transfected cells; host or cells: HEK293
T2 sequence (Q9HC29 whole entry): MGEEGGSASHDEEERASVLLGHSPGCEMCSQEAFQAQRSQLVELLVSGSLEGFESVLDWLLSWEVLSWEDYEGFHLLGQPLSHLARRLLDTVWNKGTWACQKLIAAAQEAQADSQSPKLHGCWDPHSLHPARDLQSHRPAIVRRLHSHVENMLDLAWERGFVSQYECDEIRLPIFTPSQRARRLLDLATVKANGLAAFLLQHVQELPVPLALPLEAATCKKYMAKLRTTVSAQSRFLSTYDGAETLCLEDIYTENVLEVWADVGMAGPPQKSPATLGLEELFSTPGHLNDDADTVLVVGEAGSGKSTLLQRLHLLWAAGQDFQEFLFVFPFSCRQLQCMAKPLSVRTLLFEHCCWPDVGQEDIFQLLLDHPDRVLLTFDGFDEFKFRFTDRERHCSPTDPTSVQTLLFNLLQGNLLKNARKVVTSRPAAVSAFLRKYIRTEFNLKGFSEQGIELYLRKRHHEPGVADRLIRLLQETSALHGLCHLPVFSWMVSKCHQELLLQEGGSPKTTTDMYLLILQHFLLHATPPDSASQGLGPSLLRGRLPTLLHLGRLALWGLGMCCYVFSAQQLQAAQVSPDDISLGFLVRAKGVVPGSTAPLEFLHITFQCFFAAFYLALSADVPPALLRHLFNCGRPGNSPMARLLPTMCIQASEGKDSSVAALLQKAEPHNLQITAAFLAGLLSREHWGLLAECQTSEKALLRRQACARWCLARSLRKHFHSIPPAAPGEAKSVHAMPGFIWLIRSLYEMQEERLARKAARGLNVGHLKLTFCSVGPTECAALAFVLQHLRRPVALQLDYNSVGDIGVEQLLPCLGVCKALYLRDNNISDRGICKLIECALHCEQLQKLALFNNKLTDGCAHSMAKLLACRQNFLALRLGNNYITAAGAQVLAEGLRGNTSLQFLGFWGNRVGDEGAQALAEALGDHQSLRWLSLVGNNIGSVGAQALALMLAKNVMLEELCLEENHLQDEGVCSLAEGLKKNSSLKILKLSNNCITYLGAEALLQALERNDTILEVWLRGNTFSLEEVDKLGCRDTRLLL
Description: HEK293 cells were stably transfected with plasmid for the overexpression of the NOD2 genes and a reporter plasmid expressing a secreted embryonic alkaline phosphatase (SEAP) gene under the control of a promoter inducible by the transcription factors NF-κB and AP-1. These cells are referred herein as 293hNOD2-SEAP. Upon NOD2 stimulation, these cells induce the activation of NF-κB and AP-1 and subsequently the secretion of SEAP. The reporter protein is easily detectable and measurable when using QUANTI-Blue™ (InvivoGen, San Diego, Calif.), a medium that turns purple/blue in the presence of SEAP.
The biological activity of the compounds using 293hNOD2 cells. SEAP expression was measured using the commercially available SEAP detection kit (HEK-Blue™ Detection, InvivoGen). The SEAP activity in cells was quantified using the microplate reader (FLUOStar OPTIMA, BMG laboratories), the absorbance values were read using filter with excitation at 620 nm and emission at 655 nm. The results provided in Table 3 were expressed as the concentration were a significant mean optical density (OD) can be observed (above 3*O.D of negative control) as the mean optical density. As a positive control, the NOD2 pathway was stimulated with commercially available MDP (InvivoGen) and M-triDAP (InvivoGen). As a negative control endotoxin-free water was used. Additionally, 293 cells expressing the SEAP gene but not the NOD2 gene were used as a control.

murine NOD1 = biological target: T3, murine NOD1 (Mus musculus, UniProt Q8BHB0); assay: NOD1 functional agonist assay, 293mNOD1-SEAP reporter cells; details: 293mNOD1 cells, OD above 3*O.D of negative control
T3 construct: expressed in transfected cells; host or cells: HEK293
T3 sequence (Q8BHB0 1-953): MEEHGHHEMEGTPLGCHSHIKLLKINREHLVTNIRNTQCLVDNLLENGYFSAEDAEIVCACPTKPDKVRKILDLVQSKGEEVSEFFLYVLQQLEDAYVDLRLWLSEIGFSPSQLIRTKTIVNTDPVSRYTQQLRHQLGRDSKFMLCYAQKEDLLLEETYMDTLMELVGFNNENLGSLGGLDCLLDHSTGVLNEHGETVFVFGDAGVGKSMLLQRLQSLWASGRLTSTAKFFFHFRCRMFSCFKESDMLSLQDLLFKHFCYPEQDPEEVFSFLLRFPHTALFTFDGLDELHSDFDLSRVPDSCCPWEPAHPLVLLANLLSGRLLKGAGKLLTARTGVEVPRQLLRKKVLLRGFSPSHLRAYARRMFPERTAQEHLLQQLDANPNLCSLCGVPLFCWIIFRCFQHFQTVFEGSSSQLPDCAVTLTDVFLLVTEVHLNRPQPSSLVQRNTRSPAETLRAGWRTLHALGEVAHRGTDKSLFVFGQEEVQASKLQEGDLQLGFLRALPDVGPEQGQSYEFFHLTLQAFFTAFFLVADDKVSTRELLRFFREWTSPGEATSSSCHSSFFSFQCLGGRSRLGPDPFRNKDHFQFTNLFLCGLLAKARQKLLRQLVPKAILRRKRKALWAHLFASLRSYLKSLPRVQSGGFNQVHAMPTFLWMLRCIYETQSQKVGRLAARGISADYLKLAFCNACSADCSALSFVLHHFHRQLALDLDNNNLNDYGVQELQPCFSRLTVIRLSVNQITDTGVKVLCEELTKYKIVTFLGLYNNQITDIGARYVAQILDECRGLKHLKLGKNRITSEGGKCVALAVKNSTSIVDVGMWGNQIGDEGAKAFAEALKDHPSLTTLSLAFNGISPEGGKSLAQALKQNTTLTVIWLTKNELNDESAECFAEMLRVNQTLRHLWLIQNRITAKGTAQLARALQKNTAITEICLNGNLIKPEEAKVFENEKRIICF
Description: as §1, §2

SMILES | hNod1: concentration where a significant mean optical density (OD) can be observed (human NOD1) [µg/mL] | mNod1: concentration where a significant mean optical density (OD) can be observed (murine NOD1) [µg/mL] | hNod2: concentration where a significant mean optical density (OD) can be observed (hNOD2) [µg/mL]
CC(=O)N[C@H]1[C@@H](OCc2ccccc2)O[C@H](CO)[C@@H](O)[C@@H]1O[C@H](C)C(=O)N[C@@H](C)C(=O)N[C@H](CCC(=O)N[C@H](CSC[C@H](N)C(=O)O)C(=O)N[C@H](C)C(=O)O)C(=O)O [Example 33, N2-(((R)-2-(((2S,3R,4R,5S,6R)-3-acetamido-2-(benzyloxy)-5-hydroxy-6-(hydroxymethyl)tetrahydro-2H-pyran-4-yl)oxy)propanoyl)-L-alanyl)-N^5-((S)-3-(((R)-2-amino-2-carboxyethyl)thio)-1-(((R)-1-carboxyethyl)amino)-1-oxopropan-2-yl)-D-glutamine] | 1 | 1 | 1
CC(=O)N[C@H]1[C@@H](OCc2ccccc2)O[C@H](CO)[C@@H](O)[C@@H]1O[C@H](C)C(=O)N[C@@H](C)C(=O)N[C@H](CCC(=O)N[C@H](CSC[C@H](N)C(=O)O)C(=O)NCC(=O)O)C(=O)O [Example 32, N^2-(((R)-2-(((2S,3R,4R,5S,6R)-3-acetamido-2-(benzyloxy)-5-hydroxy-6-(hydroxymethyl)tetrahydro-2H-pyran-4-yl)oxy)propanoyl)-L-alanyl)-N^5-((S)-3-(((R)-2-amino-2-carboxyethyl)thio)-1-((carboxymethyl)amino)-1-oxopropan-2-yl)-D-glutamine] | 0.1 | 0.1 | 0.1
CC(=O)N[C@H]1[C@@H](OCc2ccccc2)O[C@H](CO)[C@@H](O)[C@@H]1O[C@H](C)C(=O)N[C@@H](C)C(=O)N[C@H](CCC(=O)N[C@H](CSC[C@H](N)C(=O)O)C(=O)O)C(=O)O [Example 31, N^2-(((R)-2-(((2S,3R,4R,5S,6R)-3-acetamido-2-(benzyloxy)-5-hydroxy-6-(hydroxymethyl)tetrahydro-2H-pyran-4-yl)oxy)propanoyl)-L-alanyl)-N^5-((S)-2-(((R)-2-amino-2-carboxyethyl)thio)-1-carboxyethyl)-D-glutamine] | 1 | 1 | 0.1

Continued, in another order:

hNod1: concentration where a significant mean optical density (OD) can be observed (human NOD1) [µg/mL] | mNod1: concentration where a significant mean optical density (OD) can be observed (murine NOD1) [µg/mL] | SMILES | hNod2: concentration where a significant mean optical density (OD) can be observed (hNOD2) [µg/mL]
1 | 1 | CCCCCCC(=O)N[C@H](CCC(=O)N[C@H](CSC[C@H](N)C(=O)O)C(=O)NCC(=O)O)C(=O)O [Example 23, N^5-((S)-3-(((R)-2-amino-2-carboxyethyl)thio)-1-((carboxymethyl)amino)-1-oxopropan-2-yl)-N^2-heptanoyl-D-glutamine] | 
0.01 | 0.01 | CCCCCCCCCCCC(=O)N[C@H](CCC(=O)N[C@H](CSC[C@H](N)C(=O)O)C(=O)NCC(=O)O)C(=O)O [Example 24, N^5-((S)-3-(((R)-2-amino-2-carboxyethyl)thio)-1-((carboxymethyl)amino)-1-oxopropan-2-yl)-N^2-dodecanoyl-D-glutamine] | 
0.1 | 1 | CCCCCCC(=O)N[C@H](CCC(=O)N[C@H](CSC[C@H](N)C(=O)O)C(=O)O)C(=O)O [Example 2, N^5-((S)-2-(((R)-2-amino-2-carboxyethyl)thio)-1-carboxyethyl)-N^2-heptanoyl-D-glutamine] | 
1 | 10 | C[C@@H](NC(=O)[C@@H](CSC[C@H](N)C(=O)O)NC(=O)CC[C@@H](N)C(=O)O)C(=O)O [Example 14, N^5-((S)-3-(((R)-2-amino-2-carboxyethyl)thio)-1-(((R)-1-carboxyethyl)amino)-1-oxopropan-2-yl)-D-glutamine] | 
